Patent publication US20170050957A1, “4-AMINO-6-(HETEROCYCLIC)PICOLINATES AND 6-AMINO-2-(HETEROCYCLIC)PYRIMIDINE-4-CARBOXYLATES AND THEIR USE AS HERBICIDES” (Dow AgroSciences LLC, priority 2013, published 2017)
Where two headings read alike, the source gives them in different places.

Columns and labels:
[1] = test system: Key Broadleaf Weed and Crop Species; test: Post-emergent Test II herbicidal activity (Table 15); format: in vivo; settings: post-emergence, 336 h, 14 d; for pest or weed control at 35 g/ha: 35 g ai/ha; for pest or weed control at 70 g/ha: 70 g ai/ha; for pest or weed control at 140 g/ha: 140 g ai/ha
Procedure, shortened: (§1)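 Visual injury rating (0 = none, 100 = complete kill) taken 14 d after treatment, relative to untreated plants. Compounds in acetone/DMSO with crop oil concentrate and Triton X-155 were track-sprayed at 187 L/ha onto seedlings at the first-second true leaf stage.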

[2] = test system: Key Grass and Sedge Weeds as well as Grass Crops; test: Post-emergent Test II herbicidal activity (Table 16); format: in vivo; settings: post-emergence, 336 h, 14 d; for pest or weed control at 35 g/ha: 35 g ai/ha; for pest or weed control at 70 g/ha: 70 g ai/ha; for pest or weed control at 140 g/ha: 140 g ai/ha
Procedure, shortened: as §1

[3] = Abutilon theophrasti, velvetleaf (Abutilon theophrasti), read-out: Visual Growth Reduction (%) 14 Days After Application, ABUTH
[4] = Amaranthus retroflexus, redroot pigweed (Amaranthus retroflexus), read-out: Visual Growth Reduction (%) 14 Days After Application, AMARE
[5] = Brassica napus, oilseed rape, canola (Brassica napus), read-out: Visual Growth Reduction (%) 14 Days After Application, BRSNN
[6] = Chenopodium album, lambsquarters (Chenopodium album), read-out: Visual Growth Reduction (%) 14 Days After Application, CHEAL
[7] = Euphorbia heterophylla, wild poinsettia (Euphorbia heterophylla), read-out: Visual Growth Reduction (%) 14 Days After Application, EPHHL
[8] = Helianthus annuus, sunflower (Helianthus annuus), read-out: Visual Growth Reduction (%) 14 Days After Application, HELAN
[9] = Cyperus esculentus, yellow nutsedge (Cyperus esculentus), read-out: Visual Growth Reduction (%) 14 Days After Application, CYPES
[10] = Oryza sativa, rice (Oryza sativa), read-out: Visual Growth Reduction (%) 14 Days After Application, ORYSA
[11] = Setaria faberi, giant foxtail (Setaria faberi), read-out: Visual Growth Reduction (%) 14 Days After Application, SETFA
[12] = Triticum aestivum, wheat, spring (Triticum aestivum), read-out: Visual Growth Reduction (%) 14 Days After Application, TRZAS
[13] = Zea mays, maize, corn (Zea mays), read-out: Visual Growth Reduction (%) 14 Days After Application, ZEAMX
[14] = Echinochloa crus-galli, barnyardgrass (Echinochloa crus-galli), read-out: Visual Growth Reduction (%) 14 Days After Application, ECHCG

SMILES | pest or weed control at 35 g/ha [1, 3] | pest or weed control at 70 g/ha [1, 3] | pest or weed control at 140 g/ha [1, 3] | pest or weed control at 35 g/ha [1, 4] | pest or weed control at 70 g/ha [1, 4] | pest or weed control at 140 g/ha [1, 4] | pest or weed control at 35 g/ha [1, 5] | pest or weed control at 70 g/ha [1, 5] | pest or weed control at 140 g/ha [1, 5] | pest or weed control at 35 g/ha [1, 6] | pest or weed control at 70 g/ha [1, 6] | pest or weed control at 140 g/ha [1, 6] | pest or weed control at 35 g/ha [1, 7] | pest or weed control at 70 g/ha [1, 7] | pest or weed control at 140 g/ha [1, 7] | pest or weed control at 35 g/ha [1, 8] | pest or weed control at 70 g/ha [1, 8] | pest or weed control at 140 g/ha [1, 8] | pest or weed control at 35 g/ha [2, 9] | pest or weed control at 70 g/ha [2, 9] | further results
COC(=O)c1nc(-c2ccc(Cl)c3occc23)nc(N)c1Cl [Compound 2.20] | 45 to 59% | 60 to 74% | 60 to 74% | 95 to 100% | 95 to 100% | 95 to 100% | 0 to 29% | 0 to 29% | 30 to 44% | 85 to 94% | 95 to 100% | 95 to 100% | 0 to 29% | 0 to 29% | 0 to 29% | 85 to 94% | 95 to 100% | 95 to 100% | 0 to 29% | 0 to 29% | pest or weed control at 140 g/ha [2, 9]: 0 to 29%; pest or weed control at 35 g/ha [2, 10]: 0 to 29%; pest or weed control at 70 g/ha [2, 10]: 0 to 29%; pest or weed control at 140 g/ha [2, 10]: 0 to 29%; pest or weed control at 35 g/ha [2, 11]: 0 to 29%; pest or weed control at 70 g/ha [2, 11]: 30 to 44%; pest or weed control at 140 g/ha [2, 11]: 60 to 74%; pest or weed control at 35 g/ha [2, 12]: 0 to 29%; pest or weed control at 70 g/ha [2, 12]: 0 to 29%; pest or weed control at 140 g/ha [2, 12]: 0 to 29%; pest or weed control at 35 g/ha [2, 13]: 0 to 29%; pest or weed control at 70 g/ha [2, 13]: 0 to 29%; pest or weed control at 140 g/ha [2, 13]: 0 to 29%
COC(=O)c1nc(-c2ccc3cc[nH]c3c2F)c(Cl)c(N)c1Cl [Compound 1.07] | 0 to 29% | 0 to 29% | 0 to 29% | 85 to 94% | 95 to 100% | 95 to 100% | 0 to 29% | 0 to 29% | 0 to 29% | 85 to 94% | 85 to 94% | 85 to 94% | 60 to 74% | 60 to 74% | 60 to 74% | 95 to 100% | 95 to 100% | 95 to 100% | 0 to 29% | 0 to 29% | pest or weed control at 140 g/ha [2, 9]: 0 to 29%; pest or weed control at 35 g/ha [2, 14]: 0 to 29%; pest or weed control at 70 g/ha [2, 14]: 0 to 29%; pest or weed control at 140 g/ha [2, 14]: 0 to 29%; pest or weed control at 35 g/ha [2, 10]: 0 to 29%; pest or weed control at 70 g/ha [2, 10]: 0 to 29%; pest or weed control at 140 g/ha [2, 10]: 0 to 29%; pest or weed control at 35 g/ha [2, 11]: 60 to 74%; pest or weed control at 70 g/ha [2, 11]: 75 to 84%; pest or weed control at 140 g/ha [2, 11]: 75 to 84%; pest or weed control at 35 g/ha [2, 12]: 0 to 29%; pest or weed control at 70 g/ha [2, 12]: 0 to 29%; pest or weed control at 140 g/ha [2, 12]: 0 to 29%; pest or weed control at 35 g/ha [2, 13]: 0 to 29%; pest or weed control at 70 g/ha [2, 13]: 0 to 29%; pest or weed control at 140 g/ha [2, 13]: 0 to 29%
